The record followed here is ChEMBL document CHEMBL3991601, “The target landscape of clinical kinase drugs” (Science, 2017).

SMILES strings stand for the structures. Active and inactive are the calls of the source. For most assays here, no stated cut-off is given here; in the data, actives have a measured Kd and inactives only a lower limit.

Test [1] concerns the target T1, Tyrosine-protein kinase Tec (Homo sapiens, UniProt P42680).
T1 sequence (P42680 whole entry): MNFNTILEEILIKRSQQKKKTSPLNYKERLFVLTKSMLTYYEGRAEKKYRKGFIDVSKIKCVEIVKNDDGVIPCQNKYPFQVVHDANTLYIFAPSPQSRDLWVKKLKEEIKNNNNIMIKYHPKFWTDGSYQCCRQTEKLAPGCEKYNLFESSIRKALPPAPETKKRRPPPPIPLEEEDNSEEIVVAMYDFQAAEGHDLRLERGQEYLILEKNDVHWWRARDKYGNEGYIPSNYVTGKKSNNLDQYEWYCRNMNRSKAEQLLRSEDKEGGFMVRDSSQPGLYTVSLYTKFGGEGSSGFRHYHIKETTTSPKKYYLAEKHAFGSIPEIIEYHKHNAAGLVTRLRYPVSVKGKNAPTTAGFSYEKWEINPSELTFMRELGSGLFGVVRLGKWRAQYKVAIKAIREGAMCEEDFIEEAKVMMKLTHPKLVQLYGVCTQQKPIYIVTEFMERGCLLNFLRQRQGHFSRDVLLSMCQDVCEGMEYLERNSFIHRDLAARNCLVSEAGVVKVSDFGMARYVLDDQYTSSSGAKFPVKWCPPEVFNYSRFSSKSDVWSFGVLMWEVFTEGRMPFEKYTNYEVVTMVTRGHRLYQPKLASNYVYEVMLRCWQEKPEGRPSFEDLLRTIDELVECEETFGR

Test [2] deals with Tyrosine-protein kinase Lyn (Homo sapiens, UniProt P07948).
Chain of Tyrosine-protein kinase Lyn (P07948 whole entry): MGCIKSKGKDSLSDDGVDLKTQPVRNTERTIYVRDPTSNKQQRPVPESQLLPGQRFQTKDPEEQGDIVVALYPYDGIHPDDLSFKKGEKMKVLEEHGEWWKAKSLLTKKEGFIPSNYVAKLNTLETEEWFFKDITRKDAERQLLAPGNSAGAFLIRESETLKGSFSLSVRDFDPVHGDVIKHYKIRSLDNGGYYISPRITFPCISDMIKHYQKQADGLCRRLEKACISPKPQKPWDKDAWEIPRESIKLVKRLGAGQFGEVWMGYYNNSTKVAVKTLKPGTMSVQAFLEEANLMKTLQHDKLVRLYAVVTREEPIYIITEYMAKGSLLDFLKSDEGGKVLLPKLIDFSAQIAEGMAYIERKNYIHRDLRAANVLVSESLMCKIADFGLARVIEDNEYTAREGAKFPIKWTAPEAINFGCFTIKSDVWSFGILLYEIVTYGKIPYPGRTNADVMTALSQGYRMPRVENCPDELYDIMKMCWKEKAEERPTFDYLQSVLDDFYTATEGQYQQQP
Test [3] concerns the target T2, ATP-dependent 6-phosphofructokinase, platelet type (Homo sapiens, UniProt Q01813).
T2 sequence (Q01813 whole entry): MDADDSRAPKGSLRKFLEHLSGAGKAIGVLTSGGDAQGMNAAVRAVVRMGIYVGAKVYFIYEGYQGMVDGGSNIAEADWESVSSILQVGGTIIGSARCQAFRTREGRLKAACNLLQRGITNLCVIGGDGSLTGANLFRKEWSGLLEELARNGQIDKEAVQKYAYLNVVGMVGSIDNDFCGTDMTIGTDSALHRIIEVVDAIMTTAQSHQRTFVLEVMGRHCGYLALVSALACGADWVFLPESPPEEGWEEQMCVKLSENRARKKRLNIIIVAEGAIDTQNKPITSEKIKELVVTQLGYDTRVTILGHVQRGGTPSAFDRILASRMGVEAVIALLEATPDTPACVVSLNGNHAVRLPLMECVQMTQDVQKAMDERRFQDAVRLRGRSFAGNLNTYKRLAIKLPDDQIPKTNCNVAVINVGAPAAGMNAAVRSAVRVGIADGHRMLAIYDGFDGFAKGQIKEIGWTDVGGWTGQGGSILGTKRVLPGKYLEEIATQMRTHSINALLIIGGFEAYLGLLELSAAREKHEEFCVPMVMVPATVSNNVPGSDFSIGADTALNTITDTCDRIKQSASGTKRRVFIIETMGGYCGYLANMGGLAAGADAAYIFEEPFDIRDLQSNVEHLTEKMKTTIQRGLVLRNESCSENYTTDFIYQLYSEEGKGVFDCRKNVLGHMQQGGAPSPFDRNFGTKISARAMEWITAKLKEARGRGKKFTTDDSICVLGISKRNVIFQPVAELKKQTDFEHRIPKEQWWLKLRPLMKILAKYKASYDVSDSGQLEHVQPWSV

Test [4] deals with Casein kinase I isoform epsilon (Homo sapiens, UniProt P49674).
Chain of Casein kinase I isoform epsilon (P49674 whole entry, canonical isoform): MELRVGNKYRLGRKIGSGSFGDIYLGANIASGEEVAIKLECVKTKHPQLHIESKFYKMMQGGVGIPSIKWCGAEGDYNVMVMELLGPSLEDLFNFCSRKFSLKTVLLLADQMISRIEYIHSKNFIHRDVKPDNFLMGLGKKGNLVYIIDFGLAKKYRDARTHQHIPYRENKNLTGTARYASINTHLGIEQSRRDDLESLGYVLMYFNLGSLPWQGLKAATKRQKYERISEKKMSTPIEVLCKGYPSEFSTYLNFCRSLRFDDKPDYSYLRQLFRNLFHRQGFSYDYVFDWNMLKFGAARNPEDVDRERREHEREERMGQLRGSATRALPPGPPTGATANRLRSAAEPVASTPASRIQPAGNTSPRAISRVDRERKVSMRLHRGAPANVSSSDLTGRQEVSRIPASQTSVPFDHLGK
The target in test [5] is T3, Bone morphogenetic protein receptor type-2 (Homo sapiens, UniProt Q13873).
T3 sequence (Q13873 whole entry): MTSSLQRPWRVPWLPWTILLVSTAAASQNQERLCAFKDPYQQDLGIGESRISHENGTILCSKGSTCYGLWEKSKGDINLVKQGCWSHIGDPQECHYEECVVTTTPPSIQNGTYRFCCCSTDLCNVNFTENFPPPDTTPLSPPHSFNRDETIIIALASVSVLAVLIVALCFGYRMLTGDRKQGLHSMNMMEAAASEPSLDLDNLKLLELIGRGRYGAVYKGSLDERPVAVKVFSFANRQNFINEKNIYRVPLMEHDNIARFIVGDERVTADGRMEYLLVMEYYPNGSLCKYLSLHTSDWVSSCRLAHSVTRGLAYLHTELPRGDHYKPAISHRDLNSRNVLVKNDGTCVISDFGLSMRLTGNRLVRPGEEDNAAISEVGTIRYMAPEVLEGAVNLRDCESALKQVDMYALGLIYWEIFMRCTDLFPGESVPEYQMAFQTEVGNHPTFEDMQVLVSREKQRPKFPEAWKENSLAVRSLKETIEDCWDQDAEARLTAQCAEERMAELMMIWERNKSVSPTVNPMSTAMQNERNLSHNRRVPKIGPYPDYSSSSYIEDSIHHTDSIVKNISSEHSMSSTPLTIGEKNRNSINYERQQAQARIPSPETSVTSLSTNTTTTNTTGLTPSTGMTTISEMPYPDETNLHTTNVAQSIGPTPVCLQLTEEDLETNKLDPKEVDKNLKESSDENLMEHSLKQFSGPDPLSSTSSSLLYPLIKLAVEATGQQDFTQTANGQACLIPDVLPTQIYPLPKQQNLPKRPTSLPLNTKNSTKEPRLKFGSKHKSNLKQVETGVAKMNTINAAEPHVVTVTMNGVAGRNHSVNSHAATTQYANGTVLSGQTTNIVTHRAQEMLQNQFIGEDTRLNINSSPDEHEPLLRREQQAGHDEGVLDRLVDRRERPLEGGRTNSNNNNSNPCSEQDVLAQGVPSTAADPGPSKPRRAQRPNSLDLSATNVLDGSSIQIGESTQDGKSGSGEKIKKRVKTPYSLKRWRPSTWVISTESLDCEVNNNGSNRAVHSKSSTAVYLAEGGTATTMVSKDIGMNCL

As for `CC(=O)Nc1cccc(-n2c(=O)n(C3CC3)c(=O)c3c(Nc4ccc(I)cc4F)n(C)c(=O)c(C)c32)c1` [TRAMETINIB], the Kd in test [1], in test [2], in test [3], in test [4] and in test [5] was > 30 µM (inactive) each time.

With `COC(=O)N[C@@H](C)CNc1nccc(-c2cn(C(C)C)nc2-c2cc(Cl)cc(NS(C)(=O)=O)c2F)n1` [ENCORAFENIB], the Kd in test [1], in test [2], in test [3], in test [4] and in test [5] was > 30 µM (inactive) throughout.

With `COC(=O)[C@@]1(O)C[C@H]2O[C@]1(C)n1c3ccccc3c3c4c(c5c6ccccc6n2c5c31)C(=O)NC4` [K-252A], the Kd in test [1], in test [2], in test [3], in test [4] and in test [5] was > 30 µM (inactive) throughout.

As to `CCS(=O)(=O)N1CC(CC#N)(n2cc(-c3ncnc4[nH]ccc34)cn2)C1` [BARICITINIB], the Kd in test [1], in test [2], in test [3], in test [4] and in test [5] was > 30 µM (inactive) each time.

As to `CNS(=O)(=O)Nc1nccc(Cc2c(C)c3ccc(Oc4ncccn4)cc3oc2=O)c1F` [AVUTOMETINIB], the Kd in test [1], in test [2], in test [3], in test [4] and in test [5] was > 30 µM (inactive) each time.

Take `COc1ccc(-c2ccc3c(N4CCOC[C@@H]4C)nc(N4CCOC[C@@H]4C)nc3n2)cc1CO` [AZD-8055]: the Kd in test [1], in test [2], in test [3], in test [4] and in test [5] was > 30 µM (inactive) each time.

On to `O=C(O)[C@]1(Cc2cccc(Nc3nccs3)n2)CC[C@@H](Oc2cccc(Cl)c2F)CC1` [MK-5108], for which the Kd in test [1] is 0.707 µM (active); in test [2], > 30 µM (inactive); in test [3], > 30 µM (inactive); in test [4] it was > 30 µM (inactive); in test [5], > 30 µM (inactive).

`O=C1NC(=O)/C(=C/c2ccc3nccc(-c4ccncc4)c3c2)S1` [GSK-1059615]: the Kd in test [1], in test [2], in test [3], in test [4] and in test [5] was > 30 µM (inactive) each time.

For `C[C@@H](Nc1cc(F)cc(F)c1)c1cc(C(=O)N(C)C)cc2c(=O)cc(N3CCOCC3)oc12` [AZD-8186], the Kd in test [1], in test [2], in test [3], in test [4] and in test [5] was > 30 µM (inactive) throughout.

On to `Cc1c(F)cc(C(=O)NC2CC2)cc1-c1ccc(C(=O)NCC(C)(C)C)cn1` [LOSMAPIMOD], for which the Kd in test [1], in test [2], in test [3], in test [4] and in test [5] was > 30 µM (inactive) throughout.

As for `COc1cc(CCc2cc(NC(=O)c3ccc(N4C[C@@H](C)N[C@@H](C)C4)cc3)n[nH]2)cc(OC)c1` [AZD-4547], the Kd in test [1], in test [2], in test [3], in test [4] and in test [5] was > 30 µM (inactive) in each case.

`C=CC(=O)N1CCC(Oc2cc3c(Nc4ccc(Cl)c(Cl)c4F)ncnc3cc2OC)CC1` [POZIOTINIB]: the Kd was 0.069 µM (active) in test [1]; > 30 µM (inactive) in test [2]; > 30 µM (inactive) in test [3]; > 30 µM (inactive) in test [4]; > 30 µM (inactive) in test [5].

Turning to `Cc1cc2c(F)c(Oc3ncnn4cc(OC[C@@H](C)OC(=O)[C@H](C)N)c(C)c34)ccc2[nH]1` [BRIVANIB ALANINATE], the Kd in test [1], in test [2], in test [3], in test [4] and in test [5] was > 30 µM (inactive) in each case.

Regarding `O=C(Nc1cccc(Cl)c1)Nc1ncc(CCNc2ncnc3ccsc23)s1` [SNS-314], the Kd in test [1], in test [2], in test [3], in test [4] and in test [5] was > 30 µM (inactive) in each case.

Regarding `C1=C/COCc2cc(ccc2OCCN2CCCC2)Nc2nccc(n2)-c2cccc(c2)COC/1` [PACRITINIB], the Kd in test [1], in test [2], in test [3], in test [4] and in test [5] was > 30 µM (inactive) throughout.

In the case of `C[C@@H]1CN(Cc2ccc(F)cc2)[C@@H](C)CN1C(=O)c1cc2c(C(=O)C(=O)N(C)C)cn(C)c2cc1Cl` [TALMAPIMOD], the Kd in test [1], in test [2], in test [3], in test [4] and in test [5] was > 30 µM (inactive) in each case.

As to `CCc1cnn2c(NCc3ccc[n+]([O-])c3)cc(N3CCCC[C@H]3CCO)nc12` [DINACICLIB], the Kd in test [1], in test [2], in test [3], in test [4] and in test [5] was > 30 µM (inactive) throughout.

On to `CN1CCC(COc2cnc(-c3cccc(Cn4nc(-c5cccc(C#N)c5)ccc4=O)c3)nc2)CC1` [TEPOTINIB], for which the Kd in test [1], in test [2], in test [3], in test [4] and in test [5] was > 30 µM (inactive) in each case.

In the case of `CNC(=O)c1ccc(C)c(-n2c(C)cc(OCc3ccc(F)cc3F)c(Br)c2=O)c1` [PH-797804], the Kd in test [1], in test [2], in test [3], in test [4] and in test [5] was > 30 µM (inactive) throughout.
